According to patent US9682126B2, “Postprandial gastrokinetic agent” (ZERIA PHARMACEUTICAL CO., LTD., priority 2013, dated 2017):

Columns and labels:
[1] = tested on: subjects; details: motilin continuously administered intravenously to fasting subjects; cited from earlier work
[2] = tested on: Suncus murinus; assay: Gastric motility in postprandial period, sham-operated vs vagotomized (Example 2); type: in vivo
Description: Each of Suncus motilin (Scrum Inc., Tokyo, Japan) and human ghrelin (Asubio Pharma Co., Ltd., Hyogo, Japan) were dissolved in PBS containing 0.1% bovine serum albumin. Suncus murinus (male, outbred KAT strain, 7 to 15 weeks old, 60 to 100 g) was used for the experiment. Each animal was bred in a plastic cage provided with an empty can as a nest box under the following conditions: temperature at 23±2° C., illumination between 8:00 and 20:00, and free intake of commercial trout feed (SP, Nippon Formula Feed Mfg Co., Ltd., Yokohama, Japan). After 3 hours of fasting, Suncus murinus was anesthetized by an intraperitoneal injection of pentobarbital sodium (50 mg/kg). Through a midline incision, the stomach was exposed outside the body, and a force transducer was fixed via suture in the circular muscle direction of the body of stomach. The wire extending from the force transducer was inserted through the abdominal wall, passed under the skin, and exposed at the back of the neck. Thereafter, truncal vagotomy was performed. A lower portion of the esophagus was exposed, both branches of the vagus nerve were isolated, and about 3 mm of the vagus nerve was excised above the hepatic branch and the celiac branch. For sham-operated Suncus murinus, the vagus nerve was exposed, but not excised. An intravenous catheter was inserted in the right jugular, and extracorporeally fixed to the back. The catheter was filled with heparinized saline (100 units/mL) to prevent clotting. From 2 days after the operation, the gastric motility was recorded. 1 g of feed was given to the Suncus murinus during phase I to observe postprandial contractions. Motilin was continuously injected at 50 ng/kg/min over 10 minutes 20 minutes after completion of intake of feed. Amplified analog signals were converted into digital signals by an analog-to-digital converter (ADC-20, Pico Technology Ltd, St Neots, UK), and the digital signals were recorded on a computer. […] Gastric motility was quantitated using a motility index (MI). A motility index (MI) based on a drug was calculated using the following equation. […]

[3] = tested on: Suncus murinus; assay: Postprandial gastric motility, force transducer on stomach, motility index MI (Example 1); type: in vivo; details: motilin 300 ng/kg iv after 10-min feed intake
Description: Effects of administration of each of ghrelin and motilin and co-administration of ghrelin and motilin on postprandial gastric motility in Suncus murinus were studied. Each of Suncus motilin (Scrum Inc., Tokyo, Japan) and human ghrelin (Asubio Pharma Co., Ltd., Hyogo, Japan) was dissolved in phosphate buffered saline (PBS) containing 0.1% bovine serum albumin. Suncus murinus (male, outbred KAT strain, 8 to 9 weeks old, 73 to 90 g) was used for the experiment. Each animal was bred in a plastic cage provided with an empty can as a nest box under the following conditions: temperature at 23±2° C., illumination between 8:00 and 20:00, and free intake of commercial trout feed (SP, Nippon Formula Feed Mfg Co., Ltd., Yokohama, Japan). After 3 hours of fasting, Suncus murinus was anesthetized by an intraperitoneal injection of pentobarbital sodium (50 mg/kg). Through a midline incision, the stomach was exposed outside the body, and a force transducer was fixed via suture in the circular muscle direction of the body of stomach. […] Amplified analog signals were converted into digital signals by an analog-to-digital converter (ADC-20, Pico Technology Ltd, St Neots, UK), and the digital signals were recorded on a computer. […] Gastric motility was quantitated using a motility index (MI). A motility index (MI) based on a drug was calculated using the following equation. […]

CC[C@H](C)[C@H](NC(=O)[C@@H]1CCCN1C(=O)[C@@H](NC(=O)[C@@H](N)Cc1ccccc1)C(C)C)C(=O)N[C@@H](Cc1ccccc1)C(=O)N[C@H](C(=O)N[C@@H](Cc1ccc(O)cc1)C(=O)NCC(=O)N[C@@H](CCC(=O)O)C(=O)N[C@@H](CC(C)C)C(=O)N[C@@H](CCC(N)=O)C(=O)N[C@@H](CCCNC(=N)N)C(=O)N[C@@H](CCSC)C(=O)N[C@@H](CCC(N)=O)C(=O)N[C@@H](CCC(=O)O)C(=O)N[C@@H](CCCCN)C(=O)N[C@@H](CCC(=O)O)C(=O)N[C@@H](CCCNC(=N)N)C(=O)N[C@@H](CC(N)=O)C(=O)N[C@@H](CCCCN)C(=O)NCC(=O)N[C@@H](CCC(N)=O)C(=O)O)[C@@H](C)O [motilin]
gastric emptying [1]: accelerate gastric emptying | MI of postprandial motilin-induced contractions, vagotomized compared with sham-operated ([2]; motilin 50 ng/kg/min after intake of feed): significantly higher | phase III-like contractions ([2]; sham-operated, after intake of feed, motilin 50 ng/kg/min, 10-minute administration): did not induce phase III-like contractions | phase III contractions ([2]; vagotomized, after intake of feed, motilin 50 ng/kg/min, 10-minute administration): induced strong phase III contractions | contractions of the body of the stomach [3]: did not induce contractions of the body of the stomach
